# Target: T1, recombinant human mPGES-1 (Homo sapiens, UniProt O14684)
# T1 construct: made in house; host or cells: Rosetta E. coli (microsomal/membrane fraction)
# T1 sequence (O14684 1-152): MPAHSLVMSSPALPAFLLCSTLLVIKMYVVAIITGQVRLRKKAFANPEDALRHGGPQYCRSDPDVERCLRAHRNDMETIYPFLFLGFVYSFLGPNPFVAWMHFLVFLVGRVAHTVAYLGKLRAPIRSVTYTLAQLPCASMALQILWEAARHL
# Assay: mPGES-1 inhibition test (microsomes, PGH2 substrate, HTRF detection of PGE2)
# Format: biochemical
# Settings: inhibition of mPGES-1 at 1 μM (marked in cell)
# Protocol: Microsomes from Rosetta E. coli bacteria expressing recombinant human mPGES-1 is dissolved in 0.1 M KPi pH 7.4 buffer containing 2.5 mM GSH. 50 μl of the enzyme is subsequently dispensed in a 384-well plate. 0.5 μl of the inhibitor dissolved in DMSO at is thereafter added to each well and incubated for 25 minutes at room temperature. Subsequently, 2 μl of PGH2 dissolved in an appropriate solvent is added to each well and after one minute the acidified stop solution containing FeCl2 is added. 4 μl of the total volume is transferred to a separate plate and diluted 750-fold in two separate steps before HTRF detection of PGE2.
# The HTRf detection is performed by the use of a commercially available kit from CisBio essentially according to the manufacturer's protocol. Briefly, 10 μl of the diluted sample is transferred to a white 384-well plate. 5 μl of d2 and 5 μl Eu3+-Cryptate labeled anti-PGE2 is added to each well containing samples by the use of a Multidrop. The plate is covered with a plastic self-adhesive film, centrifuged at 1200 rpm for 1 minute and subsequently stored at +4° C. over night.
# After over night incubation the fluorescence is measured by the use of an appropriate microplate reader. The fluorescence of europium cryptate, and d2 are measured using the following excitation and emission wavelength, europium cryptate: λmax^ex=307 nm, λmax^em=620 nm and d2: λmax^ex=620 nm, λmax^em=665 nm), respectively. The extent of the specific FRET is measured as a ratio of the emission intensity at 665 nm vs. that at 620 nm. A standard curve using synthetic PGE2 is used to quantify the amount of PGE2 in unknown samples.
row,inhibition at 1 µM [%],SMILES
1,99,"Cc1ccc(Cl)c(Nc2nc3cc(C(=O)N[C@H]4CC[C@H](C(F)(F)F)CC4)c(F)cc3n2C)c1F [Example 629, 2-(6-Chloro-2-fluoro-3-methyl-phenylamino)-6-fluoro-N-(trans-4-trifluoromethyl-cyclohex-1-yl)-1-methyl-1H-benzimidazole-5-carboxamide]"

# Same assay, conditions: inhibition of mPGES-1 at 10 μM
row,SMILES,inhibition at 10 µM [%]
1,"Cn1c(Nc2c(Cl)cccc2Cl)nc2cc(C(=O)NC3CCCCC3O)ccc21 (stereo not drawn) [Example 237, 2-(2,6-Dichloro-phenylamino)-1-methyl-1H-benzimidazole-5-carboxylic acid (2-hydroxy-cyclohexyl)-amide]",87
2,"Cn1c(Nc2c(Cl)cccc2Cl)nc2cc(C(=O)NC3CCC(F)(F)CC3)c(F)cc21 [Example 156, 2-(2,6-Dichloro-phenylamino)-6-fluoro-1-methyl-1H-benzimidazole-5-carboxylic acid (4,4-difluoro-cyclohexyl)-amide]",100
3,"O=C(Nc1cccc(Cl)n1)c1ccc2[nH]c(Nc3c(Cl)cccc3Cl)nc2c1 [Example 185, 2-(2,6-Dichloro-phenylamino)-1H-benzimidazole-5-carboxylic acid (6-chloro-pyridin-2-yl)-amide]",98
4,"Cn1c(Nc2c(Cl)cccc2Cl)nc2cc(C(=O)Nc3ccc(S(C)(=O)=O)cc3)ccc21 [Example 250, 2-(2,6-Dichloro-phenylamino)-1-methyl-1H-benzimidazole-5-carboxylic acid (4-methanesulfonyl-phenyl)-amide]",73
5,"Cc1cc(C)nc(NC(=O)c2ccc3c(c2)nc(Nc2c(Cl)cccc2Cl)n3C)c1 [Example 201, 2-(2,6-Dichloro-phenylamino)-1-methyl-1H-benzimidazole-5-carboxylic acid (4,6-dimethyl-pyridin-2-yl)-amide]",100
6,"Cc1cc(C(=O)Nc2ccc(Br)cc2)cc2nc(Nc3c(Cl)cccc3Cl)[nH]c12 [Example 51, 2-(2,6-Dichloro-phenylamino)-7-methyl-1H-benzimidazole-5-carboxylic acid (4-bromo-phenyl)-amide]",89
7,"COc1cc2c(cc1C(=O)NC1CCCCC1)nc(Nc1c(Cl)cccc1Cl)n2C [Example 135, 2-(2,6-Dichloro-phenylamino)-6-methoxy-1-methyl-1H-benzimidazole-5-carboxylic acid cyclohexylamide]",100
8,"Cn1c(Nc2c(Cl)cccc2Cl)nc2cc(C(=O)NCc3ccc(C(F)(F)F)cn3)ccc21 [Example 246, 2-(2,6-Dichloro-phenylamino)-1-methyl-1H-benzimidazole-5-carboxylic acid (5-trifluoromethyl-pyridin-2-ylmethyl)-amide]",100
9,"O=C(NC1CCC(F)(F)CC1)c1cc2[nH]c(Nc3c(Cl)cccc3Cl)nc2cc1F [Example 149, 2-(2,6-Dichloro-phenylamino)-6-fluoro-3H-benzimidazole-5-carboxylic acid (4,4-difluoro-cyclohexyl)-amide]",100
10,"CCCCCCCCNC(=O)c1cc2nc(Nc3c(Cl)cccc3Cl)n(C)c2cc1F [Example 166, 2-(2,6-Dichloro-phenylamino)-6-fluoro-1-methyl-1H-benzimidazole-5-carboxylic acid octylamide]",100
11,"Cc1cc(NC(=O)c2ccc3c(c2)nc(Nc2c(Cl)cccc2Cl)n3C)ncc1Cl [Example 202, 2-(2,6-Dichloro-phenylamino)-1-methyl-1H-benzimidazole-5-carboxylic acid (5-chloro-4-methyl-pyridin-2-yl)-amide]",100
12,"O=C(NC1CCc2ccccc2C1)c1cc2[nH]c(Nc3c(Cl)cccc3Cl)nc2cc1F (stereo not drawn) [Example 150, 2-(2,6-Dichloro-phenylamino)-6-fluoro-3H-benzimidazole-5-carboxylic acid (1,2,3,4-tetrahydro-naphthalen-2-yl)-amide]",100
13,"O=C(Nc1ncccc1Cl)c1ccc2[nH]c(Nc3c(Cl)cccc3Cl)nc2c1 [Example 186, 2-(2,6-Dichloro-phenylamino)-1H-benzimidazole-5-carboxylic acid (3-chloro-pyridin-2-yl)-amide]",91
14,"Cn1c(Nc2c(F)cccc2F)nc2cc(C(=O)N[C@H]3CC[C@H](C(F)(F)F)CC3)ccc21 [Example 171, 2-(2,6-Difluoro-phenylamino)-1-methyl-1H-benzimidazole-5-carboxylic acid (trans-4-trifluoromethyl-cyclohexyl)-amide]",94

# Continued, values first:
row,inhibition at 10 µM [%],SMILES
1,100,"O=C(Nc1ccccc1Cl)c1ccc2[nH]c(Nc3c(Cl)cccc3Cl)nc2c1 [Example 284, 2-(2,6-Dichloro-phenylamino)-1H-benzimidazole-5-carboxylic acid (2-chloro-phenyl)-amide]"
2,100,"CCCCCCNC(=O)c1cc2nc(Nc3c(Cl)cccc3Cl)n(C)c2cc1F [Example 373, 2-(2,6-Dichlorophenylamino)-6-fluoro-N-hexyl-1-methyl-1H-benzimidazole-5-carboxamide]"
3,90,"CCOc1cc2[nH]c(Nc3c(Cl)ccc(Cl)c3F)nc2cc1C(=O)Nc1cccc(Cl)c1 [Example 603, 2-(3,6-Dichloro-2-fluoro-phenylamino)-N-(3-chloro-phenyl)-6-ethoxy-1H-benzimidazole-5-carboxamide]"
4,44,"CNC(=O)c1ccc(Nc2nc3cc(C(=O)Nc4ccc(Br)cc4)ccc3n2C)c(Cl)c1 [Example 540, N-(4-Bromophenyl)-2-(2-chloro-4-(methylcarbamoyl)-phenylamino)-1-methyl-1H-benzimidazole-5-carboxamide]"
5,77,"Cn1c(Nc2c(Cl)cccc2Cl)nc2cc(C(=O)NC3CCN(C4CC4)CC3)c(F)cc21 [Example 561, N-(1-Cyclopropylpiperidin-4-yl)-2-(2,6-dichlorophenylamino)-6-fluoro-1-methyl-1H-benzimidazole-5-carboxamide]"
6,100,"Cc1ccc(NC(=O)c2ccc3[nH]c(Nc4c(Cl)cccc4Cl)nc3c2)cc1Cl [Example 286, 2-(2,6-Dichloro-phenylamino)-1H-benzimidazole-5-carboxylic acid (3-chloro-4-methyl-phenyl)-amide]"
7,100,"O=C(Nc1cc(Cl)ccc1Cl)c1ccc2[nH]c(Nc3c(Cl)cccc3Cl)nc2c1 [Example 281, 2-(2,6-Dichloro-phenylamino)-1H-benzimidazole-5-carboxylic acid (2,5-dichloro-phenyl)-amide]"
8,100,"CC(C)CCCNC(=O)c1cc2nc(Nc3c(Cl)cccc3Cl)n(C)c2cc1F [Example 408, 2-(2,6-Dichlorophenylamino)-6-fluoro-1-methyl-N-(4-methylpentyl)-1H-benzimidazole-5-carboxamide]"
9,69,"O=C(Nc1ccc(Br)cc1)c1ccc2[nH]c(Nc3c(Cl)cccc3OC(F)(F)F)nc2c1 [Example 557, N-(4-Bromophenyl)-2-(2-chloro-6-(trifluoromethoxy)phenylamino)-1H-benzimidazole-5-carboxamide]"
10,97,"Cn1c(Nc2c(Cl)cc(F)cc2Cl)nc2cc(C(=O)NCc3ncccc3C(F)(F)F)ccc21 [Example 542, 2-(2,6-Dichloro-4-fluorophenylamino)-1-methyl-N-((3-trifluoromethyl-pyridin-2-yl)methyl)-1H-benzimidazole-5-carboxamide]"
11,100,"Cn1c(Nc2cc(Cl)ccc2Cl)nc2cc(C(=O)Nc3ccc(Br)cc3)ccc21 [Example 380, N-(4-Bromophenyl)-2-(2,5-dichlorophenylamino)-1-methyl-1H-benzimidazole-5-carboxamide]"
12,95,"Cn1c(Nc2c(Cl)cccc2Cl)nc2cc(C(=O)NCCC3CC3)c(F)cc21 [Example 484, N-(2-Cyclopropylethyl)-2-(2,6-dichlorophenylamino)-6-fluoro-1-methyl-1H-benzimidazole-5-carboxamide]"
13,99,"Cn1c(Nc2c(Cl)cccc2Cl)nc2cc(C(=O)NCCC3CCC3)c(F)cc21 [Example 397, N-(2-Cyclobutylethyl)-2-(2,6-dichlorophenylamino)-6-fluoro-1-methyl-1H-benzimidazole-5-carboxamide]"
14,100,"Cn1c(Nc2c(Cl)cccc2Cl)nc2cc(C(=O)NC3CCC4(CC4)C3)c(F)cc21 (stereo not drawn) [Example 415, 2-(2,6-Dichlorophenylamino)-6-fluoro-1-methyl-N-(spiro[2.4]heptan-5-yl)-1H-benzimidazole-5-carboxamide]"
15,98,"O=C(NC1CCC2(CC1)CC2)c1ccc2[nH]c(Nc3c(F)cccc3Cl)nc2c1 [Example 488, 2-(2-Chloro-6-fluorophenylamino)-N-(spiro[2.5]octan-6-yl)-1H-benzimidazole-5-carboxamide]"

# — patent publication US8916599B2, “1H-benz imidazole-5-carboxamides as anti-inflammatory agents” (Orexo AB, priority 2008, dated 2014)
